Laboratory results published in ChEMBL document CHEMBL1126381, “2-carboxy indolines and indoles as potential glycine/NMDA antagonists: effect of five-membered ring conformation on affinity” (Bioorg Med Chem Lett, 1992).

Assays:
[1] = target: Glutamate receptor ionotropic, NMDA 1 (Rattus norvegicus, UniProt P35439); test: Inhibition of [3H]L-689,560 binding to Glycine site of NMDA receptor of rat cortical membranes; assay type: cell membranes, Membrane
Mus musculus [2] = test: In vivo activity in DBA/2 Mouse audiogenic seizure model was determined by testing number of animals protected after a dose of 100 mg/Kg i.p.; Number of animals tested 8 mice; assay type: functional
Mus musculus [3] = test: In vivo activity in DBA/2 Mouse audiogenic seizure model was determined by testing number of animals protected after a dose of 50 mg/Kg i.p.; Number of animals tested 8 mice; assay type: functional

Row | IC50 [1] [µM] | Compound | Animals protected (Mus musculus [2]) | Animals protected (Mus musculus [3])
1 | 9 | O=C(O)c1[nH]c2cc(Cl)ccc2c1CO | – | –
2 | > 300 | COC(=O)[C@@H]1c2ccc(Cl)cc2N[C@H]1C(=O)O | – | –
3 | > 100 | NC(=O)[C@@H]1c2ccc(Cl)cc2N[C@H]1C(=O)O | – | –
4 | 0.027 | Nc1ccc(CNC(=O)CCc2c(C(=O)O)[nH]c3cc(Cl)cc(Cl)c23)cc1 | 1 | –
5 | > 100 | O=C(O)[C@@H]1Nc2cc(Cl)ccc2[C@H]1CO | – | –
6 | > 100 | O=C(OC[C@@H]1c2ccc(Cl)cc2N[C@H]1C(=O)O)c1ccccc1 | – | –
7 | > 100 | O=C(O)[C@@H]1c2ccc(Cl)cc2N[C@H]1C(=O)O | – | –
8 | > 100 | COC(=O)C1(C(=O)OC)c2ccc(Cl)cc2N[C@H]1C(=O)O | – | –
9 | > 100 | O=C(O)C[C@@H]1c2ccc(Cl)cc2N[C@H]1C(=O)O | – | –
10 | 0.81 | NC(=O)c1c(C(=O)O)[nH]c2cc(Cl)ccc12 | – | –
11 | 0.036 | O=C(CCc1c(C(=O)O)[nH]c2cc(Cl)cc(Cl)c12)Nc1ccccc1 | – | –

Row | Compound | IC50 [1] [µM] | Animals protected (Mus musculus [2]) | Animals protected (Mus musculus [3])
12 | O=C(O)CCc1c(C(=O)O)[nH]c2cc(Cl)cc(Cl)c12 | 0.07 | 6 | 0
